Legend:
HSV-2 (MS strain) [1] = assay: Vaginal virus replication in primary genital HSV-2 infection of guinea pigs; assay type: in vivo, Female Hartley strain guinea pigs; conditions: for # Infected/# Inoculated / Mean Peak Virus Titer / P-Value for Mean Peak Virus Titer / Virus Titer-Day Area Under Curve: 20 mg/ml; for infectivity rate: treatment beginning 6 h after infection
Method: (§1) A series of studies were carried out to compare the activity of inventive antiviral Compounds 23, 76, and 82 in a primary genital HSV-2 infection of guinea pigs. The experiments were placebo-controlled and uninfected animals were treated with three concentrations of each of the preparations to assess skin irritation and determine the maximum tolerated dose.
(§2) The MS strain of HSV-2 was utilized for the experimental animal infection. Female Hartley strain guinea pigs (Charles River Breeding Laboratories, Kingston, N.Y.) weighing 250-300 g were inoculated intravaginally with 1.4×10^5 plaque forming units of HSV-2 one hour after being swabbed for the removal of vaginal secretions.
(§3) Groups of 10 infected guinea pigs were treated topically as stated above with 20 mg/ml (the maximum tolerated dose) of each compound beginning 6 h or 24 h after inoculation with HSV-2.
To determine the effect of treatment on vaginal virus replication, swabs of vaginal secretions were obtained on days 1, 3, 5, 7, and 10 after HSV-2 inoculation, placed in a tube containing 2.0 ml of media, vortexed and frozen at -70° until titrated for HSV-2. When all samples were collected, they were thawed, diluted serially and HSV-2 titers were determined using rabbit kidney cells in a microtiter CPE assay. Mean peak virus titers and areas under the virus titer-day curves were calculated and analyzed.
(§4) The number of animals infected over the number inoculated, lesion score-day areas and virus titer-day areas under the curve, peak lesion scores and peak virus titers between untreated and placebo-treated or placebo-treatedand drug-treated animals were compared using the Mann-Whitney U rank sum test. A p-value of 0.05 or less was considered significant.

HSV-2 (MS strain) [2] = assay: External genital lesion development in primary genital HSV-2 infection of guinea pigs; assay type: in vivo, Female Hartley strain guinea pigs; design: key to Lesion Score-Day Area Under Curve: area under 0-5+ lesion score vs day curve (score-days); key to Mean Peak Lesion Score: lesion severity on 0-5+ scale; conditions: 20 mg/ml
Method: as §1, §2, §3
To determine the effect of therapy on the development and spread of external genital lesions, lesion severity was scored on a 0-5+ scale through the primary infection (21 days). Mean peak lesion scores and the areas under the lesion score-day curves were calculated and analyzed.
as §4

[3] = Method: A stock solution of each compound to be tested at a concentration of 5 mg/ml was prepared. The stock solution was serially diluted in Hank's Balanced Salt Solution (HBSS) to obtain final drug concentrations of 5, 2, 1, 0.5, 0.1, 0.01, 0.001 and 0.0001 mg/ml. […] In such cases, the highest dissolved concentration that could be obtained was utilized.
Concentrations of compounds 93, 96, and 23 were prepared as follows: A stock solution of each compound at a concentration of 5 mg/ml was made. This stock solution was serially diluted in Hanks Balanced Salt Solution to obtain final drug concentrations of: 5, 2, 1, 0.5, 0.1, 0.01, 0.001, and 0.0001 mg/ml. Five hundred μl of each drug concentration were added to triplicate infected monolayers.

HSV-1 = HSV-1 plaque reduction assay; assay type: cell-based; design: IC50: unit not given beside the values; conditions: for IC50: toxicity IC50
Method: (§5) Two days prior to use, HFF cells are plated into six well plates and incubated at 37° C. with 5% CO2 and 90% humidity. On the date of assay, the drug is made up at twice the desired concentration in 2×MEM and then serially diluted 1:5 in 2×MEM using six concentrations of drug. The initial starting concentration is usually 200 μg/ml down to 0.06 μg/ml. The virus to be used is diluted in MEM containing 10% FBS to a desired concentration which will give 20-30 plaques per well. The media is then aspirated from the wells and 0.2 ml of virus is added to each well in duplicate with 0.2 ml of media being added to drug toxicity wells. The plates are then incubated for one hour with shaking every fifteen minutes. After the incubation period, an equal amount of 1% agarose was added to a equal volume of each drug dilution. This will give final drug concentrations beginning with 100 μg/ml and ending with 0.03 μg/ml and a final agarose overlay concentration of 0.5%. The drug agarose mixture is applied to each well in 2 ml volume and the plates then incubated for three days, after which the cells were stained with a 1.5% solution of neutral red. At the end of 4-6 hr incubation period, the stain is aspirated, and plaques counted using a stereomicroscope at 1×magnification.
(§6) The procedure for the liquid overlay plaque assay is similar to that using the agarose overlay. The procedure for adding the virus is the same as for the regular plaque assay. The drugs are made up in a concentration to be used in MEM with 2% FBS. The drugs are not made up at 2×concentration as in previous assays but are made up at the desired concentration. For HSV-1 and HSV-2 assays, an antibody preparation obtained from Baxter Health Care Corporation is diluted 1:500 and added to the media that the drug is diluted in. For CMV and VZV, no antibody in the overlay is utilized. For the CMV assay, additional medium without new drug is added on day six and allowed to incubate for a total of 11 days. For VZV, additional media is added on day five and incubated for a total of eight days. At the end of the incubation period for all of the assays, the medium is removed, the cells washed and then stained with 0.1% crystal violet solution for ten minutes. The cells are then rinsed several times to remove any excess crystal violet and plaques enumerated using a stereomicroscope.
(§7) I. EC50 values were also determined for each of the viruses tested for known antiviral agents. The comparison compound was ACV for all viruses except for HCMV aherein DHPG was the comparison compound. In Table 26, these comparison EC50 values are indicated with an asterisk. In Table 27, the drug FIAU (2'-fluoro-5-iodo-arabinosyl-uracil) was used as a control.

HSV-2 = HSV-2 plaque reduction assay; assay type: cell-based; design: unit not given beside the values; conditions: for IC50: toxicity IC50
Method: as §5, §6, §7

| Structure (SMILES) | # Infected/# Inoculated (HSV-2 (MS strain) [1]; started +6h) | Mean Peak Virus Titer (HSV-2 (MS strain) [1]; started +6h) | P-Value for Mean Peak Virus Titer (HSV-2 (MS strain) [1]; started +6h) | Virus Titer-Day Area Under Curve (HSV-2 (MS strain) [1]; started +6h) | # Infected/# Inoculated (HSV-2 (MS strain) [1]; started +24h) | Mean Peak Virus Titer (HSV-2 (MS strain) [1]; started +24h) | Virus Titer-Day Area Under Curve (HSV-2 (MS strain) [1]; started +24h) | effect on virus titer AUC (HSV-2 (MS strain) [1]; started +24 h) | infectivity rate (HSV-2 (MS strain) [1]) | Lesion Score-Day Area Under Curve (HSV-2 (MS strain) [2]; started +6h) | Mean Peak Lesion Score (HSV-2 (MS strain) [2]; started +6h) | P-Value for Mean Peak Lesion Score (HSV-2 (MS strain) [2]; started +6h) | Lesion Score-Day Area Under Curve (HSV-2 (MS strain) [2]; started +24h) | Mean Peak Lesion Score (HSV-2 (MS strain) [2]; started +24h) | solubility at 5 and 2 mg/ml [3] | EC50 (HSV-1) | IC50 (HSV-1) | EC50 (HSV-2) | IC50 (HSV-2) | solubility of stock solution at 1 mg/ml [3] |
| --- | --- | --- | --- | --- | --- | --- | --- | --- | --- | --- | --- | --- | --- | --- | --- | --- | --- | --- | --- | --- |
| CC([O-])=CC(C)=NCCN=C(C)C=C(C)[O-].[Cl-].[Co+3].c1c[nH]cn1.c1c[nH]cn1 [Compound 82] | 5/10 | 1.1 | < 0.001 | 3.3 | 10/10 | 4.6 | 26.4 | failed to alter the virus titer AUC | 50% | 3.5 | 0.7 | < 0.001 | 53.8 | 3.4 | – | – | – | – | – | – |
| CC(=NCCN=C(C)C(Cl)=C(C)[O-])C(Cl)=C(C)[O-].[Br-].[Co+3].c1c[nH]cn1.c1c[nH]cn1 [Compound 93] | – | – | – | – | – | – | – | – | – | – | – | – | – | – | not to be soluble | – | – | – | – | – |
| CC1=CC(C)=[N+]2CC[N+]3=C(C)C=C(C)[O][Co-3]23([NH3+])([NH3+])[O]1.[Cl-] [Compound 23, reference compound] | 5/10 | 1.1 | < 0.001 | 1.7 | 10/10 | 4.1 | 14.5 | – | 50% | 0.0 | 0.0 | < 0.001 | 43.8 | 3.4 | – | > 4 | 7.0 | > 4 | 7.0 | – |
| CC([O-])=CC(C)=NCCN=C(C)C=C(C)[O-].Cc1ncc[nH]1.Cc1ncc[nH]1.[Br-].[Co+3] [Compound 96] | – | – | – | – | – | – | – | – | – | – | – | – | – | – | – | > 4 | 10.2 | > 4 | 10.2 | moderately insoluble |
